Results: US10660900B2 (priority 2014, dated 2020)
“And” between values parts separate entries of the source, which are not always exact repeats. Equal values may be shown once. “Also recorded” adds a separate entry of the source.

Columns and labels:
OPRK [1] = biological target: T1, OPRK (Homo sapiens, UniProt P41145); experiment: cell-based; design: host or cells: CHO-K1
[2] = Cold pressor test in healthy volunteers; type: in vivo, human; conditions: 3-60 mg single oral doses versus placebo; hand immersion duration and VAS pain score
Method: Analgesic effect was assessed based on duration of hand immersion in ice water and on visual analog scale (VAS) pain scores upon hand removal from the water bath.
(§1) Safety and tolerability of noribogaine were tested in the group of volunteers from Example 1. Cold pressor testing was conducted in 1° C. water according to the method of Mitchell et al. (J Pain 5:233-237, 2004) pre-dose, 6, 24, 48, 72 and 216 hours post-dosing. Safety evaluations included clinical monitoring, recording of adverse events (AEs), safety laboratory tests, vital signs, ECG telemetry from −2 h to 6 h after dosing, and 12-lead electrocardiograms (ECGs) up to 216 hours post-dosing.

[3] = rats; centrally mediated; Baumann, Rothman et al. 2001; cited from earlier work
[4] = biological target: opioid receptor delta (OPRD) (Bos taurus, UniProt F1N083); conditions: printed in the SEM column; literature; cited from earlier work
Chain of opioid receptor delta (OPRD) (F1N083 1-372): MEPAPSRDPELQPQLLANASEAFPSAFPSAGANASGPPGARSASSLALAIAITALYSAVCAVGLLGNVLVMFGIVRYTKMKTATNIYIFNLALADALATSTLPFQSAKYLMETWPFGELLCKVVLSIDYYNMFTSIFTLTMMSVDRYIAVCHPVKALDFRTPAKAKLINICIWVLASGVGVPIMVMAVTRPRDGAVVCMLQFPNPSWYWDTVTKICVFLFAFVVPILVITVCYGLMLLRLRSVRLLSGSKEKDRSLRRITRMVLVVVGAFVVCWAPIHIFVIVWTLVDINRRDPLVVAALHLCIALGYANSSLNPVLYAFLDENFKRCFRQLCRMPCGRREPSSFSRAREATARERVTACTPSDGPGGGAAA

[5] = tested on: human opioid receptor delta (OPRD); conditions: Pearl, Herrick-Davis et al. 1995; cited from earlier work
[6] = Safety and tolerability in healthy volunteers (adverse events, ECG, vital signs, oximetry); type: in vivo, human
Method: Pulse oximetry and capnography data were collected continuously using a GE Carescape B650 monitoring system from 2 hours prior to dosing and until six hours after dosing, and thereafter at 12, 24, 48 and 72 hours post-dosing. Additional oximetry data were collected at 120, 168 and 216 hours. Pupillary miosis was assessed by pupillometry. Dark-adapted pupil diameter was measured in triplicate using a Neuroptics PLR-200 pupillometer under standardized light intensity (<5 lux) pre-dose, and at 2, 4, 6, 12, 24, 48, 72, 96, 120, 168 and 216 hours post-dosing.
as §1

human OPRM = human OPRM (Homo sapiens, UniProt P35372); experiment: biochemical; type: binding; design: expressed in transfected cells; host or cells: CHO-K1 (cell line provided by Dr. Toll, Torrey Pines Institute); membranes prepared in house
Chain of human OPRM (P35372 whole entry): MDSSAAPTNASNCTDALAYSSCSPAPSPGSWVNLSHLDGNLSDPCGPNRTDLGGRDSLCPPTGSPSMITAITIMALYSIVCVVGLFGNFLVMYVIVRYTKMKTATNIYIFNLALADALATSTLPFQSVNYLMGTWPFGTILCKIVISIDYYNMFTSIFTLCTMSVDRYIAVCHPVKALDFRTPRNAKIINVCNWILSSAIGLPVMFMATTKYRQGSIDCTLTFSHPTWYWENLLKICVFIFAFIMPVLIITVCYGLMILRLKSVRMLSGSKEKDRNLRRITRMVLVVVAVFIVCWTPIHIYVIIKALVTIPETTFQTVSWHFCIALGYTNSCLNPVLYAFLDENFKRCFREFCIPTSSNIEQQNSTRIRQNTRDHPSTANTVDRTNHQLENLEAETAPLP

human OPRK = experiment: biochemical; type: binding
OPRK [7] = biological target: T1, OPRK; experiment: biochemical; design: expressed in transfected cells; host or cells: CHO-K1
OPRK [8] = biological target: T1, OPRK; experiment: biochemical; type: binding; design: expressed in transfected cells; host or cells: CHO-K1; conditions: [3H]-U69,593 Binding; This work

T1 sequence (P41145 whole entry): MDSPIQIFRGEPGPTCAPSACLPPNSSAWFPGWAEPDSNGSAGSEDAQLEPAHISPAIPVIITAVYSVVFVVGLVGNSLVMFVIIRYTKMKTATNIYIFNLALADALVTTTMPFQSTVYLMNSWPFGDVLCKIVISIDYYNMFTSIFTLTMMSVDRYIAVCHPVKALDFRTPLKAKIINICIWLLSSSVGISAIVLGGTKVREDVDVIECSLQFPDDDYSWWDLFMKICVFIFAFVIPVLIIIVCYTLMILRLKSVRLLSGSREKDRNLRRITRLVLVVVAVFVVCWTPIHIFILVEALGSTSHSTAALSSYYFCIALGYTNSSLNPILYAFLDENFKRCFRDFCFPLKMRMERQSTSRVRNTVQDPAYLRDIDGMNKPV

## CC[C@H]1CC2C[C@H]3c4[nH]c5ccc(O)cc5c4CCN(C2)C13 [Noribogaine, noribogaine]
OPRK [1]
  EC50: 0.265 µM
OPRK [1]; Activation
  e-coupling (pKi-pEC50): −0.43
  e-coupling, Beta-Arrestin2 Pathway: −0.43
  e-signal, Beta-Arrestin2 Pathway: 0.13
  pEC50: 6.6
OPRK [1]; CHO-K1, read-out: Efficacy (Emax)
  Emax: 12.6 ± 3%
OPRK [1]; Dynorphin A at EC80
  inhibition of agonist response: ~60%
OPRK [1]; Inhibition
  e-coupling, Beta-Arrestin2 Pathway: −0.44
  e-signal, Beta-Arrestin2 Pathway: 0.60
OPRK [1]; inhibitory component
  e-coupling (pKi-pKe): −0.44
OPRK [1]; inhibitory component against Dynorphin A
  Efficacy (inhibition): −60~ %
[2]
  analgesic effect in the cold pressor test: no analgesic effect
[3]
  release of prolactin: triggered the release of prolactin
[4]
  Ki: 24.7 µM
[5]
  less affine at OPRD than at OPRK: ~30 ×
[6]; 3 mg dose group, two subjects
  number of adverse events reported: five
[6]; 3 mg noribogaine
  adverse events, Mild: Back pain; also recorded: Dizziness; also recorded: Epistaxis; also recorded: Headache
  adverse events, Moderate: Headache
[6]; 10 mg dose group, single subject
  number of adverse events reported: one
[6]; 10 mg noribogaine
  adverse events, Mild: Headache
[6]; 30 mg dose group, single subject
  number of adverse events reported: one
[6]; 30 mg noribogaine
  adverse events, Mild: Headache
[6]; 3-60 mg single oral doses
  oximetry, capnography, respiratory rate: no changes in oximetry or capnography, or changes in respiratory rate
  vital signs and safety laboratory tests: no changes in vital signs or safety laboratory tests of note
[6]; all dose groups, any time
  QTcF values above 500 msec: no QTcF values >500 msec
[6]; one subject, 10 mg noribogaine, 24 hours post-dosing
  single increase in QTcF: > 60 ms
Human OPRM
  pKi: 5.8
Human OPRK; from literature (or literature/this work) values
  ΔpKi = pKi(OPRK) − pKi(OPRM), OPRK Specificity: 0.4
Human OPRK; from values of this work
  ΔpKi = pKi(OPRK) − pKi(OPRM), OPRK Specificity: 0.3
OPRK [7]
  Efficacy (Emax): 70%
  Efficacy (inhibition): −30% and −25%
  e-coupling (pKi-pEC50): 1.08
  e-coupling, G-protein Pathway: 1.72 and 1.08
  own reduced signal level to which rival agonist signal is leveled down: 70%
  pEC50: 5.1
OPRK [7]; Ke
  Ki: 12 µM and 24 µM
OPRK [7]; read-out: EC50
  EC50: 8.75 µM and 8.7 µM
OPRK [7]; read-out: Efficacy (Emax)
  Emax: 72 ± 3.8%
OPRK [8]
  pKi: 6.1
